Each compound was assayed against recombinant sEH (soluble epoxide hydrolase, EPHX2) (Homo sapiens (Human), UniProt P34913) (assay: biochemical fluorometric sEH inhibition assay with Phome substrate). Settings: recombinant sEH purified from Sf9 insect cells, 2 nM sEH, 5 μM Phome, 60 minutes at 30° C.
recombinant sEH (soluble epoxide hydrolase, EPHX2), sequence (P34913 whole entry): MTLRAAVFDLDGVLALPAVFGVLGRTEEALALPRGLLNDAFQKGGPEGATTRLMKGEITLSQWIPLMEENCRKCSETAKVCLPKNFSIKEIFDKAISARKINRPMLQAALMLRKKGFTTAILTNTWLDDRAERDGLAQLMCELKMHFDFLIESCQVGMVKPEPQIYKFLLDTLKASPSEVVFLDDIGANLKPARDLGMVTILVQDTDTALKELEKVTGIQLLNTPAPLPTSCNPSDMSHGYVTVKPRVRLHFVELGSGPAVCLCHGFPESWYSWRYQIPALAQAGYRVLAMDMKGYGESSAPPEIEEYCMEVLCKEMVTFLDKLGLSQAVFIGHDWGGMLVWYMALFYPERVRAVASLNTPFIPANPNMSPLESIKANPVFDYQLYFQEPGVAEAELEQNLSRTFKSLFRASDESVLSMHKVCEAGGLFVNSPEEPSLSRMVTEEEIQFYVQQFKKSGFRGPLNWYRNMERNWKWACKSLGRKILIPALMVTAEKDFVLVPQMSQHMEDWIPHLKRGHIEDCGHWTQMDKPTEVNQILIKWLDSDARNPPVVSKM
Description: Compounds were tested in a biochemical screening assay using recombinant sEH purified from Sf9 insect cells and an artificial substrate, (3-phenyl-oxiranyl)-acetic acid cyano-(6-methoxy-naphtalen-2-yl)-methyl ester, Phome. The biochemical assay was performed in analogy to a fluorometric described in the literature (P. D. Jones et al., Anal. Biochem. 2005, 343, 66-75). The assay principle bases on the sEH-catalyzed hydrolysis of an artificial α-cyano-ester substrate. O-deacetylation liberates a cyanohydrin intermediate that rapidly decomposes to the highly fluorescent 6-methoxy-2-naphtaldehyde. To discriminate sample autofluorescence, the assay was carried out as a kinetic measurement with two time points. The first measurement is performed immediately before addition of the substrate and the […] measurement is done after completion of the assay. The assay format is either in 96- or in 384-well format.
Details of the assay using a 96-well plate format are described below. 40 μl recombinant sEH enzyme and 5 μl test compound are pre-incubated for 15 minutes at 30° C. Following pre-incubation, the reaction is started by addition of 5 μl Phome. The assay mixture containing 2 nM final sEH concentration, test compound ranging in a concentration from 0.0001-10 μM and 5 μM Phome is incubated for 60 minutes at 30° C.
Fluorescence is measured with any suitable detector for instance a TECAN Safire or Tecan Ultra at […]. % inhibition of recombinant sEH activity is used for calculation of corresponding IC50 values as illustrated and described in the examples.
The NCBI gene bank reference sequence with the accession number NM_001979 for EPHX2/sEH was applied for recombinant protein production:
The following commercially available materials have been used: • Incubation reagent: 25 mM Hepes (Sigma-Aldrich, Cat. No H-3375), 0.01% bovine albumin (Sigma-Aldrich Cat. No PA9205) • Substrate: 3-Phenyl-oxiranyl)-acetic acid cyano-(6-methoxy-naphtalen-2-yl)-methyl ester, Phome (Biozol Cat. No 10003134) • Microtiter plates: 96-well plates (Greiner Cat. No 655180; Costar Cat. No 3915)
With `O=C(NCc1ccccc1C(F)(F)F)c1ccc(CN2CCN(C(=O)Cc3ccccc3Cl)CC2)s1` [Example 3] the IC50 was 0.407 nM.
Work on `CC[C@H](O)C(=O)N1CCN(Cc2ncc(C(=O)NCc3ccc(Cl)cc3Cl)s2)CC1` [Example 191] yielded an IC50 of 14 nM.
`O=C1NCC(C(=O)N2CCN(Cc3ncc(C(=O)NCc4ccc(Cl)cc4Cl)s3)CC2)N1` (stereo not shown) [Example 203] showed an IC50 of 36.3 nM.
`O=C(NCc1ccccc1C(F)(F)F)c1ccc(CN2CCN(C(=O)c3c(Cl)cccc3Cl)CC2)s1` [Example 81] gave an IC50 of 2.36 nM.
`CC(C)CCNC(=O)c1ccc(CN2CCN(C(=O)[C@@H]3C[C@H]3c3ccccc3)CC2)s1` [Example 5] showed an IC50 of 0.432 nM.
In the case of `Cc1cc(C(=O)NCc2ccccc2OC(F)(F)F)sc1CN1CCN(C(=O)c2c(C)cc(=O)oc2C)CC1` [Example 148], the IC50 is reported as 1.87 nM.
In the case of `COc1cccnc1C(=O)N1CCN(Cc2ncc(C(=O)NCc3ccc(Cl)cc3Cl)s2)CC1` [Example 196], the IC50 is reported as 36.4 nM.
`O=C(NCc1ccccc1C(F)(F)F)c1ccc(CN2CCN(C(=O)c3cscc3Br)CC2)s1` [Example 18] gave an IC50 of 0.678 nM.
With `Cn1cccc1C(=O)N1CCN(Cc2ccc(C(=O)NCc3ccc(Cl)cc3Cl)s2)CC1` [Example 130] the IC50 was 1.73 nM.
`O=C(NCc1ccccc1C(F)(F)F)c1ccc(CN2CCN(C(=O)C3Cc4ccccc43)CC2)s1` (stereo not shown) [Example 6] gave an IC50 of 0.528 nM.
Compound `CCCn1nccc1CNC(=O)c1ccc(CN2CCN(C(=O)c3c(C)cc(=O)oc3C)CC2)s1` [Example 78] has an IC50 of 2.54 nM.
For `COc1ccc(CNC(=O)c2ccc(CN3CCn4cnnc4C3)s2)c(OC(F)(F)F)c1` [Example 104], the IC50 was 2.33 nM.
In the case of `O=C(NCc1ccc(Cl)cc1Cl)c1cnc(CN2CCN(C(=O)c3ccc[nH]c3=O)CC2)s1` [Example 178], the IC50 is reported as 58.6 nM.
For `CC(O)C(=O)N1CCN(Cc2ncc(C(=O)NCc3ccc(Cl)cc3Cl)s2)CC1` (stereo not shown) [Example 189], the IC50 was 28.9 nM.
In the case of `O=C(NCc1ccccc1OC(F)(F)F)c1ccc(CN2CCN(C(=O)c3ncccc3O)CC2)s1` [Example 82], the IC50 is reported as 2.37 nM.
Work on `NC1(C(=O)N2CCN(Cc3ccc(C(=O)NCc4ccc(Cl)cc4Cl)s3)CC2)CC1` [Example 109] yielded an IC50 of 2.16 nM.
Work on `O=C(NCc1ccc(Cl)cc1Cl)c1ccc(CN2CCN(C(=O)c3cccnc3)CC2)s1` [Example 89] yielded an IC50 of 1.4 nM.
Compound `COCc1cc(O)nc(N2CCN(Cc3ccc(C(=O)NCc4ccccc4OC(F)(F)F)s3)CC2)n1` [Example 158] has an IC50 of 2.04 nM.
`CC(C)(O)C(=O)N1CCN(Cc2ccc(C(=O)NCc3ccccc3OC(F)(F)F)s2)CC1` [Example 123] was tested, and the IC50 was 1.69 nM.
`COc1ccc(CNC(=O)c2ccc(CN3CCN(c4ncccc4C)C(=O)C3)s2)c(OC(F)(F)F)c1` [Example 126] gave an IC50 of 1.75 nM.
`CCc1oncc1C(=O)N1CCN(Cc2ccc(C(=O)NCc3ccc(Cl)cc3Cl)s2)CC1` [Example 90] gave an IC50 of 1.43 nM.
Compound `Cc1cc(=O)oc(C)c1C(=O)N1CCN(Cc2ccc(C(=O)NCc3ccc(C(F)(F)F)cc3)s2)CC1` [Example 33] has an IC50 of 0.906 nM.
For `O=C(NCc1ccc(Cl)cc1Cl)c1ccc(CN2CCN(C(=O)Cc3ccccc3Cl)CC2)s1` [Example 69], the IC50 was 2.61 nM.
With `O=C(NCc1ccccc1OC(F)(F)F)c1ccc(CN2CCN(C3CCS(=O)(=O)C3)CC2)s1` (stereo not shown) [Example 85] the IC50 was 2.44 nM.
For `O=C(NCc1ccccc1OC(F)(F)F)c1ccc(CN2CCN(c3ccc(CO)cn3)CC2)s1` [Example 87], the IC50 was 2.41 nM.
In the case of `CCc1oncc1C(=O)N1CCN(Cc2ccc(C(=O)NCc3ccccc3C(F)(F)F)s2)CC1` [Example 117], the IC50 is reported as 1.64 nM.
With `O=C(NCc1ccc(Cl)cc1Cl)c1cnc(CN2CCN(C(=O)CN3CCCC3=O)CC2)s1` [Example 168] the IC50 was 77.9 nM.
`O=C(NCc1ccc(Cl)cc1Cl)c1ccc(CN2CCN(C(=O)[C@@H]3C[C@H]3c3ccccc3)CC2)s1` [Example 153] was tested, and the IC50 was 2.56 nM.
`O=C(NCc1ccccc1OC(F)(F)F)c1ccc(CN2CCN(C(=O)c3c[nH]cnc3=O)CC2)s1` [Example 107] showed an IC50 of 2.26 nM.
`O=C(NCc1ccccc1OC(F)(F)F)c1ccc(CN2CCN(C(=O)[C@@H]3CCC[C@@H]3O)CC2)s1` [Example 94] showed an IC50 of 1.5 nM.
`O=C(NCc1ccc(Cl)cc1Cl)c1ccc(CN2CCN(C(=O)c3nccc4ccccc34)CC2)s1` [Example 65] gave an IC50 of 1.19 nM.

Reference: patent publication US9776991B2, “Thienomethylpiperazine derivatives as inhibitors of soluble epoxide hydrolase” (SANOFI, priority 2013, dated 2017)
